According to US12605351B2, “Method for producing a composition comprising a 3-O-p-coumaroyl ester of tormentic acid from a plant cell culture, applications thereof as antiparasitic agent for the treatment of trypanosomiasis” (LUXEMBOURG INSTITUTE OF SCIENCE AND TECHNOLOGY, priority 2019, dated 2026):
Where two headings read alike, the source gives them in different places.

What was measured:
[1] = system: Trypanosoma brucei brucei; test: In vivo anti-trypanosomal activity in infected mice; parameters: species or system NMRI mice
Description: (§1) NMRI mice (6-8 weeks of age) obtained from Envigo Laboratories (The Netherlands) were used. All in vivo experiments performed were approved by the Ethical Committee for animals use at the Health Sciences Sector of the Catholic University of Louvain (2017/UCL/MD/017).
Mice were randomly divided into 6 mice per group for 3-O-cis/trans-p-coumaroyltormentic acid (mixture of cis and trans) and ursolic acid, 4 for positive control (Suramine) and 7 for the negative control, and were infested intraperitoneally with 10^4 Trypanosoma brucei brucei. All compounds were solubilized in the vehicle (water-tween 80-ethanol) and administered intraperitoneally. 3-O-cis/trans-p-coumaroyltormentic acid or ursolic acid (UA) were administered at 50 mg/kg at day 3 after infection with the parasite and then every day until day 7 post-infection. Suramine (0.5 mg/kg) was administered while vehicle was used as a negative control. From day 3 post infection, a drop of blood collected each day from mouse-tail was used to count parasitemia.

[2] = system: Trypanosoma brucei brucei bloodstream forms (strain 427); test: In vitro antitrypanosomal activity on Tbb BSF; assay type: cell-based; settings: for IC50: Trypanosoma brucei, Tbb bloodstream forms strain 427, Table 3
Description: Antiparasitic activities were evaluated in vitro on Trypanosoma brucei brucei bloodstream forms (strain 427) (Tbb BSF). Tbb BSF were cultured in vitro at 37° C. with 5% CO2 in HMI9 medium containing 10% heat-inactivated fetal bovine serum, […] ([…]) and L-cysteine ([…]).
(§2) In vitro tests were performed as previously described by Hoet S. et al. (Planta Med., 2004, 70, 407-413, doi:10.1055/s-2004-818967). Suramine (a commercial anti-trypanosomal drug) and camptothecin were used as positive controls. Stock solutions of compounds to be tested were prepared at a concentration of 10 mg/mL in DMSO. The solutions were further diluted in medium (described in 1.1) to give 0.1 mg/mL stock solutions. Extracts and compounds were tested in eight serial three-fold dilutions (final concentration range: 50-0.02 mg/L) in 96-well microliter plates. All tests were performed at least in duplicate.

[3] = system: Human normal fibroblast cell line (WI-38); test: cells; assay type: cell-based; settings: cytotoxicity, WI-38 human fibroblasts, Table 3
Description: The cytotoxicity of tested compounds was evaluated in parallel on a Human normal fibroblast cell line (WI-38) cultivated in a humidified atmosphere with 5% CO2 at 37° C. Human normal fibroblast cell line (WI-38) was cultivated in DMEM medium (Life Technologies) containing 4 mM L-glutamine, 1 mM sodium pyruvate supplemented with 10% fetal bovine serum (Sigma) and penicillin-streptomycin (100 UI/mL).
as §2, with “Suramine” for “In vitro tests were performed as previously described by Hoet S. et al. (Planta Med., 2004, 70, 407-413, doi:10.1055/s-2004-818967). Suramine”

[4] = In vivo acute toxicity test (highest tolerated dose); parameters: species or system NMRI mice
Description: as §1
The assessment of the highest tolerated dose was based on a DNDi protocol by Loset J.-R. et al. (V. Drug Screening for Kinetoplastids Diseases. A Training Manual for Screening in Neglected Diseases-DNDi, 2009) and adapted by Beaufay C. et al. (Malar J., 2017, 16, doi:10.1186/s12936-017-2054-y). Briefly, 3-O-cis/trans-p-coumaroyltormentic acid isolated from fractions F-F9 obtained from a callus of Malus domestica Cox cultivar of example 1 above was given intraperitoneally every 2 hours to 2 mice using increasing doses: 10-15-25-50 mg/kg from stock solutions of 10 mg/mL. Mice were controlled for any health problem symptoms or behavioral changes and monitored for weight and hematocrit after each injection and every day during 48 h after administration. Main organs (heart, liver, spleen, lung and kidney) of treated mice were observed and weighed wet during autopsy. Control group received the vehicle, distilled water with 10% of tween 80-ethanol (7:3). The total injected dose was finally recorded and will ensure the non-toxicity of in vivo anti-trypanosomal test.

[5] = system: Trypanosoma cruzi; settings: review Isah et al. 2016; cited from earlier work
[6] = system: Trypanosoma brucei brucei; settings: review Isah et al. 2016; cited from earlier work
[7] = system: MCR-5 cells; settings: cited from earlier work

Compound | survival of infected mice in comparison to the untreated group ([1]; 50 mg/kg/d i.p. day 3-7 post-infection, followed to day 19) | parasitemia ([1]; day 4 post-infection, 50 mg/kg/day intraperitoneally, 10^4 Tbb/mouse) | survival increase ([1]; day 12 post-infection, 50 mg/kg i.p. day 3-7) [%] | IC50 ([2]; read-out: Tbb (IC50 μM)) [µM] | IC50 ([2]; read-out: Tbb (IC50 μg/mL)) [µg/mL] | SI (Selectivity Index) ([2]; cytotoxicity in WI38 compared to Tbb) | IC50 ([3]; read-out: WI38 (IC50 μM)) [µM] | IC50 ([3]; read-out: WI38 (IC50 μg/mL)) [µg/mL] | total cumulative highest tolerated dose ([4]; NMRI, mouse, in vivo, ip, 48 h) [mg/kg] | acute toxicity ([4]; mice, intraperitoneally every 2 hours, 10-15-25-50 mg/kg, monitored 48 h) | IC50 against Trypanosoma cruzi [5] [µg/mL] | IC50 against Trypanosoma brucei brucei [6] [µg/mL] | cytotoxicity IC50 on MCR-5 cells [7] [µg/mL]
C[C@H]1[C@H](C)CC[C@]2(C(=O)O)CC[C@]3(C)C(=CC[C@@H]4[C@@]5(C)CC[C@H](O)C(C)(C)[C@@H]5CC[C@]43C)[C@H]12 [Ursolic acid] | no significant difference | did not show any effect | 16.7 | 2.38 ± 0.24 | 1.08 ± 0.11 | 4.8 | 11.1 ± 0.22 | 5.08 ± 0.1 | 100 | no acute toxic symptom | – | – | –
tingenin | – | – | – | – | – | – | – | – | – | – | < 0.25 | < 0.25 | 0.45
